Experiments:
barnyardgrass [1] = experiment: Test A preemergence; assay type: in vivo, Echinochloa crus-galli; settings: 0 to 100 scale
Outline: (§1)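 Scoring was visual, on a scale where 100 means complete control and 0 means no effect, comparing treated with untreated plants around 10 days post-application. Compounds in surfactant-containing non-phytotoxic solvent were sprayed onto soil preemergence or onto one- to two-leaf seedlings (2–10 cm) postemergence.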

crabgrass, large [2] = experiment: Test A preemergence; assay type: in vivo, Digitaria sanguinalis; settings: 0 to 100 scale
Outline: as §1

foxtail, giant [3] = experiment: Test A preemergence; assay type: in vivo, Setaria faberii; settings: 0 to 100 scale
Outline: as §1

morningglory [4] = experiment: Test A preemergence; assay type: in vivo, Ipomoea spp.; settings: 0 to 100 scale
Outline: as §1

pigweed [5] = experiment: Test A preemergence; assay type: in vivo, Amaranthus retroflexus; settings: 0 to 100 scale
Outline: as §1

velvetleaf [6] = experiment: Test A preemergence; assay type: in vivo, Abutilon theophrasti; settings: 0 to 100 scale
Outline: as §1

wheat [7] = experiment: Test A preemergence; assay type: in vivo, Triticum aestivum
Outline: as §1

corn [8] = experiment: Test A preemergence; assay type: in vivo, Zea mays; settings: 0 to 100 scale
Outline: as §1

barnyardgrass [9] = experiment: Test A postemergence; assay type: in vivo, Echinochloa crus-galli; settings: Postemergence
Outline: as §1

crabgrass, large [10] = experiment: Test A postemergence; assay type: in vivo, Digitaria sanguinalis
Outline: as §1

foxtail, giant [11] = experiment: Test A postemergence; assay type: in vivo, Setaria faberii
Outline: as §1

morningglory [12] = experiment: Test A postemergence; assay type: in vivo, Ipomoea spp.
Outline: as §1

pigweed [13] = experiment: Test A postemergence; assay type: in vivo, Amaranthus retroflexus
Outline: as §1

velvetleaf [14] = experiment: Test A postemergence; assay type: in vivo, Abutilon theophrasti
Outline: as §1

wheat [15] = experiment: Test A postemergence; assay type: in vivo, Triticum aestivum
Outline: as §1

corn [16] = experiment: Test A postemergence; assay type: in vivo, Zea mays
Outline: as §1

[17] = Preemergence, 500 g ai/ha, 0 no effect, 100 complete control
[18] = preemergence, 125 g ai/ha, visual injury, approx. 10 days
[19] = preemergence, 125 g ai/ha, visual injury, 0 to 100 scale, approx. 10 days
[20] = 125 g ai/ha, 0 to 100 scale, 0 no effect, 100 complete control
[21] = 500 g ai/ha, visual rating after approx. 10 days, 0 to 100 scale (0 no effect, 100 complete control)
[22] = Postemergence, 500 g ai/ha, visual rating after approx. 10 days, 0 to 100 scale (0 no effect, 100 complete control)
[23] = postemergence, 125 g ai/ha, about 10 days, visual rating on 0 to 100 scale (0 no effect, 100 complete control)
[24] = Preemergence, 1000 g ai/ha, 0 no effect, 100 complete control
[25] = Postemergence, 1000 g ai/ha, visual rating after approx. 10 days, 0 to 100 scale (0 no effect, 100 complete control)

With `Cc1cc(C(=O)NCC(F)(F)F)nn1Cc1cccc(C(F)(F)F)c1` [Compound 7] the “Barnyardgrass plant response rating” value (barnyardgrass [1]; [17]) was 40, the “Barnyardgrass plant response rating” value (barnyardgrass [1]; [18]) was 0 and the “Crabgrass, Large plant response rating” value (crabgrass, large [2]; [17]) was 90. The “Foxtail, Giant plant response rating” value (foxtail, giant [3]; [17]) was 70, the “Foxtail, Giant plant response rating” value (foxtail, giant [3]; [18]) was 10 and the “Morningglory plant response rating” value (morningglory [4]; [17]) was 40. The “Morningglory plant response rating” value (morningglory [4]; [18]) was 0, the “Pigweed plant response rating” value (pigweed [5]; [17]) was 90 and the “Pigweed plant response rating” value (pigweed [5]; [18]) was 0. For the same compound, the “Velvetleaf plant response rating” value (velvetleaf [6]; [17]) was 10, the “Velvetleaf plant response rating” value (velvetleaf [6]; [18]) was 0 and the “Wheat plant response rating” value (wheat [7]; [19]) was 0. For the same compound, the “Corn plant response rating” value (corn [8]; [17]) was 10, the “Corn plant response rating” value (corn [8]; [18]) was 0 and the “Barnyardgrass plant response rating” value (barnyardgrass [9]; [20]) was 0. For the same compound, the “Barnyardgrass plant response rating” value (barnyardgrass [9]; [21]) was 30, the “Crabgrass, Large plant response rating” value (crabgrass, large [10]; [22]) was 40 and the “Crabgrass, Large plant response rating” value (crabgrass, large [10]; [23]) was 10. For the same compound, the “Foxtail, Giant plant response rating” value (foxtail, giant [11]; [22]) was 30, the “Foxtail, Giant plant response rating” value (foxtail, giant [11]; [23]) was 0 and the “Morningglory plant response rating” value (morningglory [12]; [22]) was 100. The “Morningglory plant response rating” value (morningglory [12]; [23]) was 40, the “Pigweed plant response rating” value (pigweed [13]; [22]) was 50 and the “Pigweed plant response rating” value (pigweed [13]; [23]) was 30. The “Velvetleaf plant response rating” value (velvetleaf [14]; [22]) was 40, the “Velvetleaf plant response rating” value (velvetleaf [14]; [23]) was 30 and the “Wheat plant response rating” value (wheat [15]; [22]) was 20. For the same compound, the “Wheat plant response rating” value (wheat [15]; [23]) was 0, the “Corn plant response rating” value (corn [16]; [22]) was 30 and the “Corn plant response rating” value (corn [16]; [23]) was 10.

For `CCc1cc(C(=O)N(C)OC)nn1Cc1cccc(C(F)(F)F)c1` [Compound 66], the “Barnyardgrass plant response rating” value (barnyardgrass [1]; [24]) was 0, the “Crabgrass, Large plant response rating” value (crabgrass, large [2]; [24]) was 50 and the “Foxtail, Giant plant response rating” value (foxtail, giant [3]; [24]) was 100. For the same compound, the “Morningglory plant response rating” value (morningglory [4]; [24]) was 30, the “Pigweed plant response rating” value (pigweed [5]; [24]) was 50 and the “Velvetleaf plant response rating” value (velvetleaf [6]; [24]) was 20. The “Wheat plant response rating” value (wheat [7]; Preemergence, 1000 g ai/ha, 0 to 100 scale, 0 no effect, 100 complete control) was 0, the “Wheat plant response rating” value (wheat [7]; preemergence, 500 g ai/ha, visual injury after approx. 10 days, 0 to 100 scale (0 no effect, 100 complete control)) was 0 and the “Corn plant response rating” value (corn [8]; [24]) was 0. For the same compound, the “Barnyardgrass plant response rating” value (barnyardgrass [9]; 1000 g ai/ha, visual rating after approx. 10 days, 0 to 100 scale (0 no effect, 100 complete control)) was 20, the “Crabgrass, Large plant response rating” value (crabgrass, large [10]; [25]) was 20 and the “Foxtail, Giant plant response rating” value (foxtail, giant [11]; [25]) was 40. For the same compound, the “Morningglory plant response rating” value (morningglory [12]; [25]) was 50, the “Pigweed plant response rating” value (pigweed [13]; [25]) was 50 and the “Velvetleaf plant response rating” value (velvetleaf [14]; [25]) was 40. The “Wheat plant response rating” value (wheat [15]; [25]) was 10 and the “Corn plant response rating” value (corn [16]; [25]) was 30.

In the case of `Cc1cc(C(=O)NCC(F)(F)C(F)(F)F)nn1Cc1cccc(OC(F)(F)F)c1` [Compound 6], the “Barnyardgrass plant response rating” value (barnyardgrass [1]; [17]) is reported as 0, the “Barnyardgrass plant response rating” value (barnyardgrass [1]; [18]) is reported as 0 and the “Crabgrass, Large plant response rating” value (crabgrass, large [2]; [17]) is reported as 20. For the same compound, the “Crabgrass, Large plant response rating” value (crabgrass, large [2]; [18]) was 0, the “Foxtail, Giant plant response rating” value (foxtail, giant [3]; [17]) was 20 and the “Foxtail, Giant plant response rating” value (foxtail, giant [3]; [18]) was 0. The “Morningglory plant response rating” value (morningglory [4]; [17]) was 0, the “Morningglory plant response rating” value (morningglory [4]; [18]) was 0 and the “Pigweed plant response rating” value (pigweed [5]; [17]) was 50. For the same compound, the “Pigweed plant response rating” value (pigweed [5]; [18]) was 30, the “Velvetleaf plant response rating” value (velvetleaf [6]; [17]) was 0 and the “Velvetleaf plant response rating” value (velvetleaf [6]; [18]) was 0. For the same compound, the “Wheat plant response rating” value (wheat [7]; [19]) was 0, the “Corn plant response rating” value (corn [8]; [17]) was 0 and the “Corn plant response rating” value (corn [8]; [18]) was 0. The “Barnyardgrass plant response rating” value (barnyardgrass [9]; [20]) was 0, the “Barnyardgrass plant response rating” value (barnyardgrass [9]; [21]) was 10 and the “Crabgrass, Large plant response rating” value (crabgrass, large [10]; [22]) was 30. The “Crabgrass, Large plant response rating” value (crabgrass, large [10]; [23]) was 10, the “Foxtail, Giant plant response rating” value (foxtail, giant [11]; [22]) was 20 and the “Foxtail, Giant plant response rating” value (foxtail, giant [11]; [23]) was 10. For the same compound, the “Morningglory plant response rating” value (morningglory [12]; [22]) was 60, the “Morningglory plant response rating” value (morningglory [12]; [23]) was 30 and the “Pigweed plant response rating” value (pigweed [13]; [22]) was 60. The “Pigweed plant response rating” value (pigweed [13]; [23]) was 50, the “Velvetleaf plant response rating” value (velvetleaf [14]; [22]) was 40 and the “Velvetleaf plant response rating” value (velvetleaf [14]; [23]) was 10. The “Wheat plant response rating” value (wheat [15]; [22]) was 0, the “Wheat plant response rating” value (wheat [15]; [23]) was 0 and the “Corn plant response rating” value (corn [16]; [22]) was 0. The “Corn plant response rating” value (corn [16]; [23]) was 0.

In the case of `Cc1cc(C(=O)NCC(F)(F)F)nn1Cc1cc(F)cc(C(F)(F)F)c1` [Compound 13], the “Barnyardgrass plant response rating” value (barnyardgrass [1]; [17]) is reported as 0, the “Barnyardgrass plant response rating” value (barnyardgrass [1]; [18]) is reported as 0 and the “Crabgrass, Large plant response rating” value (crabgrass, large [2]; [17]) is reported as 70. For the same compound, the “Crabgrass, Large plant response rating” value (crabgrass, large [2]; [18]) was 10, the “Foxtail, Giant plant response rating” value (foxtail, giant [3]; [17]) was 50 and the “Foxtail, Giant plant response rating” value (foxtail, giant [3]; [18]) was 0. The “Morningglory plant response rating” value (morningglory [4]; [18]) was 0, the “Pigweed plant response rating” value (pigweed [5]; [17]) was 90 and the “Velvetleaf plant response rating” value (velvetleaf [6]; [17]) was 0. The “Velvetleaf plant response rating” value (velvetleaf [6]; [18]) was 0, the “Wheat plant response rating” value (wheat [7]; [19]) was 0 and the “Corn plant response rating” value (corn [8]; [17]) was 0. For the same compound, the “Corn plant response rating” value (corn [8]; [18]) was 0, the “Barnyardgrass plant response rating” value (barnyardgrass [9]; [20]) was 0 and the “Barnyardgrass plant response rating” value (barnyardgrass [9]; [21]) was 20. For the same compound, the “Crabgrass, Large plant response rating” value (crabgrass, large [10]; [22]) was 30, the “Crabgrass, Large plant response rating” value (crabgrass, large [10]; [23]) was 20 and the “Foxtail, Giant plant response rating” value (foxtail, giant [11]; [22]) was 20. The “Foxtail, Giant plant response rating” value (foxtail, giant [11]; [23]) was 0, the “Morningglory plant response rating” value (morningglory [12]; [22]) was 100 and the “Morningglory plant response rating” value (morningglory [12]; [23]) was 50. For the same compound, the “Pigweed plant response rating” value (pigweed [13]; [22]) was 60, the “Pigweed plant response rating” value (pigweed [13]; [23]) was 40 and the “Velvetleaf plant response rating” value (velvetleaf [14]; [22]) was 20. For the same compound, the “Velvetleaf plant response rating” value (velvetleaf [14]; [23]) was 0, the “Wheat plant response rating” value (wheat [15]; [22]) was 0 and the “Wheat plant response rating” value (wheat [15]; [23]) was 0. For the same compound, the “Corn plant response rating” value (corn [16]; [22]) was 0 and the “Corn plant response rating” value (corn [16]; [23]) was 0.
